# Laboratory results: PubChem BioAssay AID296 (DTP/NCI, 2004)
# Several values for one entry are separate records, joined by “and”; a condition that tells them apart may be missing. Identical values can stand only once. Results filed as inconclusive are left out.
# Tested on: MX-1 breast xenograft, nude mice, tumor weight T/C
# Test: NCI In Vivo Anticancer Drug Screen. Data for tumor model Human Mammary Carcinoma MX-1 Xenograft (intrarenal inoculation) in NU/NU Swiss (nude) mice
# Details: endpoint: mean tumor weight change, higher = larger tumour
# How it was run: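 Activity is given as a ratio, with each measurement in the compound-treated arm divided by the matching measurement in vehicle-dosed controls. Tumour size or survival serves as the measured parameter.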
# [1] = dose: 300.0 mg/kg/injection, schedule: Q04DX003 (sc), vehicle: Klucel (hydroxypropylcellulose) (HPC)
# [2] = dose: 600.0 mg/kg/injection, schedule: Q04DX003 (sc), vehicle: Klucel (hydroxypropylcellulose) (HPC)
# [3] = dose: 1200.0 mg/kg/injection, schedule: Q04DX003 (sc), vehicle: Klucel (hydroxypropylcellulose) (HPC)
# [4] = dose: 2400.0 mg/kg/injection, schedule: Q04DX003 (sc), vehicle: Klucel (hydroxypropylcellulose) (HPC)
# [5] = dose: 150.0 mg/kg/injection, schedule: Q04DX003 (sc), vehicle: Klucel (hydroxypropylcellulose) (HPC)
# [6] = dose: 100.0 mg/kg/injection, schedule: Q04DX003 (sc), vehicle: saline with Tween-80
compound,measurement,setting,value
CN(CO)c1nc(N(C)CO)nc(N(C)CO)n1,T/C,"dose: 12.5 mg/kg/injection, schedule: Q01DX010 (sc), vehicle: saline",157 % of control
same,T/C,"dose: 25.0 mg/kg/injection, schedule: Q01DX010 (sc), vehicle: saline",55 % of control
same,T/C,"dose: 50.0 mg/kg/injection, schedule: Q01DX010 (sc), vehicle: saline",4 % of control
same,T/C,"dose: 100.0 mg/kg/injection, schedule: Q01DX010 (sc), vehicle: saline",-81 % of control
same,T/C,"dose: 100.0 mg/kg/injection, schedule: Q01DX010 (sc), vehicle: suspension in saline",-100 % of control
same,T/C,"dose: 150.0 mg/kg/injection, schedule: Q04DX003 (sc), vehicle: saline",-80 % of control and -77 % of control and -57 % of control
same,T/C,"dose: 200.0 mg/kg/injection, schedule: Q01DX010 (sc), vehicle: suspension in saline",-100 % of control
same,T/C,"dose: 300.0 mg/kg/injection, schedule: Q04DX003 (sc), vehicle: saline",-85 % of control and -84 % of control
same,T/C,"dose: 300.0 mg/kg/injection, schedule: Q04DX003 (sc), vehicle: suspension in saline",-87 % of control and -100 % of control
O=C1C=C[C@H](O)[C@@]2(CO)O[C@@H]12,T/C,"dose: 3.12 mg/kg/injection, schedule: Q04DX003 (sc), vehicle: saline with Tween-80",106 % of control
same,T/C,"dose: 6.25 mg/kg/injection, schedule: Q04DX003 (sc), vehicle: saline with Tween-80",85 % of control
Cc1c(N)nc(C(CC(N)=O)NCC(N)C(N)=O)nc1C(=O)NC(C(=O)NC(C)C(O)C(C)C(=O)NC(C(=O)NCCc1nc(-c2nc(C(=O)NCCCNCCCc3ccccn3)cs2)cs1)C(C)O)C(OC1OC(CO)C(O)C(O)C1OC1OC(CO)C(O)C(OC(N)=O)C1O)c1cnc[nH]1 (configuration not stated),T/C,"dose: 9.0 mg/kg/injection, schedule: Q04DX003 (sc), vehicle: water",77 % of control
same,T/C,"dose: 18.0 mg/kg/injection, schedule: Q04DX003 (sc), vehicle: water",66 % of control
same,T/C,"dose: 36.0 mg/kg/injection, schedule: Q04DX003 (sc), vehicle: water",75 % of control
same,T/C,"dose: 72.0 mg/kg/injection, schedule: Q04DX003 (sc), vehicle: water",44 % of control
CCCCNC(C)[C@]1(O)Cc2c(O)c3c(c(O)c2[C@@H](OC2CC(N)C(O)C(C)O2)C1)C(=O)c1c(OC)cccc1C3=O (some centres not stated),T/C,"dose: 6.25 mg/kg/injection, schedule: Q01DX010 (sc), vehicle: saline",59 % of control and 61 % of control
same,T/C,"dose: 18.0 mg/kg/injection, schedule: Q01DX010 (sc), vehicle: saline",12 % of control
S=P(N1CC1)(N1CC1)N1CC1,T/C,"dose: 4.0 mg/kg/injection, schedule: Q01DX010 (sc), vehicle: saline",-94 % of control
O=c1ssc(=Nc2ccccc2)n1-c1ccccc1,T/C,[1],65 % of control
same,T/C,[2],95 % of control
same,T/C,[3],112 % of control
same,T/C,[4],106 % of control
COc1ccc(CC2C(=O)NC(C)C(=O)N(C)C3C(=O)N(C)C(Cc4ccc(O)c(c4)Oc4ccc(cc4)C3O)C(=O)NC(C)C(=O)NC(C)C(=O)N2C)cc1 (configuration not stated),T/C,"dose: 0.5 mg/kg/injection, schedule: Q01DX010 (sc), vehicle: saline with Tween-80",78 % of control
same,T/C,"dose: 1.0 mg/kg/injection, schedule: Q01DX010 (sc), vehicle: saline with Tween-80",51 % of control
same,T/C,"dose: 2.0 mg/kg/injection, schedule: Q01DX010 (sc), vehicle: saline with Tween-80",34 % of control
CCCCCCCCCCS(=O)CC(CO)NC(=O)/C=C/c1c(C)[nH]c(=O)[nH]c1=O (configuration not stated),T/C,"dose: 9.38 mg/kg/injection, schedule: Q04DX003 (sc), vehicle: distilled water + Tween-80",88 % of control
same,T/C,"dose: 18.75 mg/kg/injection, schedule: Q04DX003 (sc), vehicle: distilled water + Tween-80",113 % of control
same,T/C,"dose: 37.5 mg/kg/injection, schedule: Q04DX003 (sc), vehicle: distilled water + Tween-80",46 % of control
C[C@@]12C(=O)OC(=O)[C@]1(C)[C@H]1CC[C@@H]2O1,T/C,"dose: 1.25 mg/kg/injection, schedule: Q04DX003 (sc), vehicle: Klucel (hydroxypropylcellulose) (HPC)",29 % of control
same,T/C,"dose: 2.5 mg/kg/injection, schedule: Q04DX003 (sc), vehicle: Klucel (hydroxypropylcellulose) (HPC)",74 % of control
CN(C)[C@@H]1C(=O)C(C(=O)NCN2CCN(C(=N)N=C(N)N)CC2)=C(O)[C@@]2(O)C(=O)C3=C(O)c4c(O)cccc4[C@@](C)(O)[C@H]3C[C@@H]12,T/C,"dose: 2.5 mg/kg/injection, schedule: Q04DX003 (ip), vehicle: suspension in saline",100 % of control
same,T/C,"dose: 5.0 mg/kg/injection, schedule: Q04DX003 (ip), vehicle: suspension in saline",28 % of control
COc1cc(C)c(C2NC(=O)c3ccccc3N2)cc1C (configuration not stated),T/C,[1],53 % of control
same,T/C,[2],115 % of control
same,T/C,[3],93 % of control
same,T/C,[4],90 % of control
COc1ccc(C(N)=O)cc1N=NN(C)C,T/C,"dose: 50.0 mg/kg/injection, schedule: Q01DX010 (sc), vehicle: Klucel (hydroxypropylcellulose) (HPC)",169 % of control
CCCC(=O)O.CCCC(=O)O.CCCC(=O)O.CCCC(=O)O.[Rh].[Rh],T/C,"dose: 2.0 mg/kg/injection, schedule: Q04DX003 (sc), vehicle: suspension in saline",99 % of control
same,T/C,"dose: 4.0 mg/kg/injection, schedule: Q04DX003 (sc), vehicle: suspension in saline",115 % of control
same,T/C,"dose: 8.0 mg/kg/injection, schedule: Q04DX003 (sc), vehicle: suspension in saline",80 % of control
CN(C)c1ccc2c(SCC(=O)OCC(=O)[C@@]3(O)CC[C@H]4[C@@H]5CCC6=CC(=O)C=C[C@]6(C)[C@H]5C(=O)C[C@@]43C)c3ccc(N(C)C)cc3nc2c1,T/C,"dose: 75.0 mg/kg/injection, schedule: Q04DX003 (sc), vehicle: Klucel (hydroxypropylcellulose) (HPC)",53 % of control
same,T/C,[5],92 % of control
same,T/C,[1],39 % of control
same,T/C,[2],55 % of control
CCC[CH2][Sn]1([CH2]CCC)[O]C2C(CO)OC(n3ccc(N)nc3=O)C2[O]1 (configuration not stated),T/C,"dose: 12.0 mg/kg/injection, schedule: Q04DX003 (sc), vehicle: Klucel (hydroxypropylcellulose) (HPC)",55 % of control
same,T/C,"dose: 24.0 mg/kg/injection, schedule: Q04DX003 (sc), vehicle: Klucel (hydroxypropylcellulose) (HPC)",59 % of control
N#C[Se-].c1ccc([Te+](c2ccccc2)c2ccccc2)cc1,T/C,"dose: 3.75 mg/kg/injection, schedule: Q04DX003 (sc), vehicle: Klucel (hydroxypropylcellulose) (HPC)",101 % of control
same,T/C,"dose: 7.5 mg/kg/injection, schedule: Q04DX003 (sc), vehicle: Klucel (hydroxypropylcellulose) (HPC)",118 % of control
same,T/C,"dose: 30.0 mg/kg/injection, schedule: Q04DX003 (sc), vehicle: Klucel (hydroxypropylcellulose) (HPC)",75 % of control
C=C1C(=O)OC2CC(C)C3C4OC4C(O)C3(C)C(O)C12 (configuration not stated),T/C,[6],113 % of control
same,T/C,"dose: 200.0 mg/kg/injection, schedule: Q04DX003 (sc), vehicle: saline with Tween-80",116 % of control
same,T/C,"dose: 400.0 mg/kg/injection, schedule: Q04DX003 (sc), vehicle: saline with Tween-80",101 % of control
CN=C(N)N/N=C(\c1ccccc1)c1ccc(Br)cc1,T/C,"dose: 25.0 mg/kg/injection, schedule: Q04DX003 (sc), vehicle: saline with Tween-80",101 % of control
same,T/C,"dose: 50.0 mg/kg/injection, schedule: Q04DX003 (sc), vehicle: saline with Tween-80",163 % of control
same,T/C,[6],78 % of control
CN(C=O)C(C(=O)Nc1cccc2c(OC(=O)C(N(C)C=O)(N(C)C=O)N(C)C=O)c(N=Nc3ccc(S(=O)(=O)Nc4nccs4)cc3)cc(N=Nc3ccc(S(=O)(=O)Nc4nccs4)cc3)c12)(N(C)C=O)N(C)C=O (tested in a mixture with another compound),T/C,"dose: 300.0 mg/kg/injection, schedule: Q04DX003 (sc), vehicle: saline with Tween-80",108 % of control
same,T/C,"dose: 2400.0 mg/kg/injection, schedule: Q04DX003 (sc), vehicle: saline with Tween-80",90 % of control
CCC/C=C/C=C/C(=O)OC1/C(=C/C(=O)OC)CC2CC(C(C)O)OC(=O)CC(O)CC3CC(OC(C)=O)C(C)(C)C(O)(CC4C/C(=C/C(=O)OC)CC(/C=C/C(C)(C)C1(O)O2)O4)O3 (configuration not stated),T/C,"dose: 0.25 mg/kg/injection, schedule: Q04DX003 (sc), vehicle: saline + alcohol",103 % of control
same,T/C,"dose: 0.5 mg/kg/injection, schedule: Q04DX003 (sc), vehicle: saline + alcohol",111 % of control
same,T/C,"dose: 1.0 mg/kg/injection, schedule: Q04DX003 (sc), vehicle: saline + alcohol",70 % of control
same,T/C,"dose: 2.0 mg/kg/injection, schedule: Q04DX003 (sc), vehicle: saline + alcohol",60 % of control
CCN(CC)CCCNc1nccc2c(C)c3[nH]c4ccncc4c3cc12,T/C,"dose: 5.0 mg/kg/injection, schedule: Q01DX010 (sc), vehicle: other",166 % of control
same,T/C,"dose: 10.0 mg/kg/injection, schedule: Q01DX010 (sc), vehicle: other",88 % of control
C#C[C@]1(O)CC[C@H]2[C@@H]3CCc4cc(O)ccc4[C@H]3CC[C@@]21C,T/C,[5],150 % of control
same,T/C,[1],94 % of control
same,T/C,[2],80 % of control
same,T/C,[3],122 % of control
